The results in this text go back to ChEMBL document CHEMBL1133424, “Fluoresceinated FKBP12 ligands for a high-throughput fluorescence polarization assay” (Bioorg Med Chem Lett, 2000).

Experiment [1] addresses T1, Peptidyl-prolyl cis-trans isomerase FKBP1A (Homo sapiens, UniProt P62942). Kind of experiment: Binding affinity of compound for FK506 binding protein 12.
Experiment [2] has as its target T1, Peptidyl-prolyl cis-trans isomerase FKBP1A. Kind of experiment: Concentration required to produce a half-maximal FP signal at against FK506 binding protein 12 at ligand concentration of 100 nM.

T1 sequence (P62942 whole entry): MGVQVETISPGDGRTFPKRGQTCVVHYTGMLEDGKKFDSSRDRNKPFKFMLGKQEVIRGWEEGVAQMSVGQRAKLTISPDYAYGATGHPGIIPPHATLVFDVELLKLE

For `CCC(C)(C)C(=O)C(=O)N1CCC[C@H]1C(=O)OCCC/N=C(S)/N=C1\C=CC(=C2c3ccc(O)cc3Oc3cc(O)ccc32)C(C(=O)O)=C1`, in experiment [1], the Ki was determined as 1300 nM. For the same molecule, in experiment [2], the IC50 was 1650 nM.

`CC(C)(C)CC(=O)C(=O)N1CCCC[C@H]1C(=O)OCCC/N=C(S)/N=C1\C=CC(=C2c3ccc(O)cc3Oc3cc(O)ccc32)C(C(=O)O)=C1` gave a Ki in experiment [1] of 482 nM. The IC50 in experiment [2] was 980 nM.

With `CC(C)(C)CC(=O)C(=O)N1CCCC[C@H]1C(=O)OC(CCCc1ccccc1)CC/N=C(S)/N=C1\C=CC(=C2c3ccc(O)cc3Oc3cc(O)ccc32)C(C(=O)O)=C1` (stereo partly drawn), in experiment [1], the affinity, expressed as Ki, was 32 nM. The molecule further came in with an IC50 in experiment [2] of 250 nM.

The molecule `COc1cc(C(=O)C(=O)N2CCCC[C@H]2C(=O)OCCCC/N=C(S)/N=C2\C=CC(=C3c4ccc(O)cc4Oc4cc(O)ccc43)C(C(=O)O)=C2)cc(OC)c1OC` came in with an inhibition constant Ki in experiment [1] of 526 nM. This molecule yielded an IC50 in experiment [2] of 410 nM.
